Read-outs that look alike come from different tables or passages of the source.
How the values were obtained:
[1] = test system: potato aphids; test: Greenhouse tests on live potato aphids on tomatoes; type: in vivo; conditions: Azadirachtin 0.0008 lbs/gal, bifenthrin 0.005 lbs/gal, combination as labelled
[2] = type: physicochemical; conditions: for % Decomposition of AZA A and PYR: JeffSol AG-1555, Triton X-100; for loss of AZA A: AZA alone without incorporation of a PYR (Table 2)
Text: This invention relates to a storage stable, efficacious pesticide formulation dilutable by the user that contains azadirachtin made up of azadirachtin A and azadirachtin B, a pyrethrin or pyrethroid, a solvent, and an emulsifier. The pyrethrin or pyrethroid complexes with and minimizes decomposition of the azadirachtin A. An amount of the pyrethrin or pyrethroid is incorporated to form a complex with the azadirachtin A on opposite sides of the molecular structure thereof. […] Preferably, an aprotic heterocyclic or mono, di-, or polycyclic aromatic solvent is provided having C2-C25 carbon atoms and that is compatible with the azadirachtin A and pyrethrin or pyrethroid. In addition, a non-ionic emulsifier is preferably included in the formulation.
When a PYR was added to AZA A, the decomposition pathway of AZA A was stabilized, as shown by Table 2.
FIG. 1 is a plot of the percent AZA A decomposition on the Y-axis, as compared with the mole ratio of bifenthrin/AZA A on the X-axis, under an accelerated aging test of 30 days at 40° C. The loss of AZA A decreased as the mole ratio of PYR to AZA A approached 2:1, where the PYR was present in an amount to form a complex with the AZA A on opposite sides of the molecular structure thereof and sufficient to prevent further decomposition of the AZA A.
FIG. 3 compares the percent of AZA A decomposition on the Y-axis with the mole ratio of zeta cypermethrin to AZA A on the X-axis, also under an accelerated aging test of 30 days at 40° C.

[3] = Azadirachtin stability tests in seed oil carrier (soybean oil / Tween 85 containing 5% water); type: physicochemical; conditions: Soybean Oil (50% Seed Oil/50% Tween 85 containing 5% water), 40° C., 32 Days
Text: AZA plus PYRs have been studied in conventional oil systems, such as soybean oil, canola oil, methylated soybean oil, epoxidized soybean oil, rape seed oil, and olive oil, all of which contained an emulsifier having as much as 5% of water. None of these oils in combination with the PYR stabilized the AZA A in the formulation, largely because of the presence of moisture in the emulsifier. When AZA is combined with PYR and the types of solvents and emulsifiers disclosed herein, the AZA A of the formulation is stabilized. Table 9 records test results of AZA+soybean oil as compared with AZA+PYR+soybean oil.

[4] = Azadirachtin A/B 0.50% + Bifenthrin 2.01%, 1 Month/40° C.
[5] = Azadirachtin A/B 0.50% + Bifenthrin 2.01%, 1 Month/Ambient
[6] = Azadirachtin A/B 1.50% + 1.50% second active, 1 Month/40° C.
[7] = Azadirachtin A/B 1.50% + 1.50% second active, 1 Month/Ambient
[8] = Azadirachtin A/B 1.75% + Bifenthrin 1.00%, 1 Month/40° C.
[9] = Azadirachtin A/B 2.00% + Bifenthrin 0.50%, 1 Month/40° C.

Compound	Live potato aphids on tomatoes (aphid mean numbers) ([1]; 0 DAT1)	Live potato aphids on tomatoes (aphid mean numbers) ([1]; 0 DAT2)	Live potato aphids on tomatoes (aphid mean numbers) ([1]; 3 DAT1)	Live potato aphids on tomatoes (aphid mean numbers) ([1]; 3 DAT2)	Live potato aphids on tomatoes (aphid mean numbers) ([1]; 7 DAT1)	Live potato aphids on tomatoes (aphid mean numbers) ([1]; 7 DAT2)	% Decomposition of AZA A and PYR [2, 4]	% Decomposition of AZA A and PYR [2, 5]	% Decomposition of AZA A and PYR [2, 6]	% Decomposition of AZA A and PYR [2, 7]	% Decomposition of AZA A and PYR [2, 8]	% Decomposition of AZA A and PYR [2, 9]	% Decomposition of AZA A and PYR ([2]; Bifenthrin only 3.01% AI, 1 Month/40° C.)	loss of AZA A (percent of AZA A decomposition) ([2]; 1:1 mole ratio zeta cypermethrin to AZA A, accelerated aging test of 30 days at 40° C., FIG. 3)	loss of AZA A [2]	AZA A Stability in Formulation ([3]; AZA A/B 0.50% + Bifenthrin 2.00%)	AZA A Stability in Formulation ([3]; AZA A/B 0.50% + Permethrin 2.00%)	AZA A Stability in Formulation ([3]; AZA A/B 0.50% + Z-Cypermethrin 2.00%)	AZA A Stability in Formulation ([3]; AZA A/B 3.00% alone)	% Decomposition of AZA A and PYR ([2]; Azadirachtin A/B only 3.01% AI, 1 Month/40° C.)
Cc1c(COC(=O)[C@@H]2[C@H](/C=C(\Cl)C(F)(F)F)C2(C)C)cccc1-c1ccccc1 (racemic) [Bifenthrin, bifenthrin]	357 a	162 b	131 b	89 b	179 b	64 b	−2.67%	−2.42%	−2.96%	−2.82%	−2.21%	−0.82%	−2.54%							
C/C=C(\C)C(=O)O[C@H]1C[C@@H](OC(C)=O)[C@@]2(C(=O)OC)CO[C@@H]3C2[C@]12CO[C@@](O)(C(=O)OC)[C@H]2[C@](C)(C12OC1(C)C1C[C@H]2O[C@@H]2OC=CC12O)[C@@H]3O (stereo partly drawn) [AZA A, azadirachtin A]														1%	more than 12%					
azadirachtin [Azadirachtin A/B]	338 a	11 c	120 b	3 c	18 c	1 c	−4.30%	−1.03%	−4.20%	−0.14%	−7.37%	−7.61%			12.64%	−54.27%	−52.62%	−48.25%	−27.02%	−12.64%
